# Reference: patent US8604068B2, “Insecticidal compositions of 2-cyanobenzene sulfonamide compounds and isomeric forms thereof having improved effect” (Bayer CropScience AG, priority 2007, dated 2013)
# Assays:
# Format in all cases: in vivo
# [1] = system: green peach aphid (Myzus persicae); experiment: Myzus persicae test (MYZUPE), ammonium salts in combination with penetration enhancers (Example C); details: for Kill rate/% after 7 days, +AS (1000 ppm) / Kill rate/% after 7 days, +RME (1000 ppm) / Kill rate/% after 7 days, +RME + AS (each 1000 ppm) / Kill rate/% after 7 days, a.i.: Table C2, emulsifier 1 part; for Kill rate/% after 7 days, +AS (1000 ppm): active substance 60 g/ha + ammonium sulfate 1000 ppm; for Kill rate/% after 7 days, +RME (1000 ppm): active substance 60 g/ha + rape oil methyl ester 1000 ppm; for Kill rate/% after 7 days, +RME + AS (each 1000 ppm): active substance 60 g/ha + rape oil methyl ester and ammonium sulfate; for Kill rate/% after 7 days, a.i.: active substance 60 g/ha; for Kill rate/% after 7 days, a.i. / Kill rate/% after 6 days, a.i.: no additive; for Kill rate/% after 6 days, +AS (1000 ppm) / Kill rate/% after 6 days, +RME (1000 ppm) / Kill rate/% after 6 days, +RME + AS (each 1000 ppm) / Kill rate/% after 6 days, a.i.: Table C1
# Method: (§1) Myzus persicae—Test (MYZUPE)
# (§2) For the preparation of a suitable active substance preparation, 1 part by weight of active substance is mixed with the stated quantities of solvent and emulsifier and the concentrate is diluted to the desired concentration with emulsifier-containing water. When addition of ammonium salts, penetration enhancers or ammonium salts and penetration enhancers is necessary, these are in each case pipetted into the finished preparation solution in a concentration of 1000 ppm after dilution.
# Paprika plants (Capsicum annuum) which are severely infested with the green peach aphid (Myzus persicae) are treated by spraying with the active substance preparation in the desired concentration.
# (§3) After the desired time, the kill rate in % is determined. Here 100% means that all the animals were killed; 0% means that no animals were killed.
# [2] = system: cotton aphid (Aphis gossypii); experiment: Aphis gossypii test (APHIGO), ammonium salts in combination with penetration enhancers (Example D); details: for Kill rate/% after 7 days, +AS (1000 ppm) / Kill rate/% after 7 days, +RME (1000 ppm) / Kill rate/% after 7 days, +RME + AS (each 1000 ppm) / Kill rate/% after 7 days, a.i.: Table D2, emulsifier 1 part; for Kill rate/% after 7 days, +AS (1000 ppm): active substance 2.4 g/ha + ammonium sulfate 1000 ppm; for Kill rate/% after 7 days, +RME (1000 ppm): active substance 2.4 g/ha + rape oil methyl ester 1000 ppm; for Kill rate/% after 7 days, +RME + AS (each 1000 ppm): active substance 2.4 g/ha + rape oil methyl ester and ammonium sulfate; for Kill rate/% after 7 days, a.i.: active substance 2.4 g/ha; for Kill rate/% after 7 days, a.i. / Kill rate/% after 6 days, a.i.: no additive; for Kill rate/% after 6 days, +AS (1000 ppm) / Kill rate/% after 6 days, +RME (1000 ppm) / Kill rate/% after 6 days, +RME + AS (each 1000 ppm) / Kill rate/% after 6 days, a.i.: Table D1
# Method: (§4) Aphis gossypii-Test (APHIGO)
# as §2
# (§5) Cotton leaves (Gossypium hirsutum) which are severely infested with the cotton aphid (Aphis gossypii) are sprayed with an active substance preparation with the desired concentration.
# (§6) After the desired time, the kill rate in % is determined. Here 100% means that all the aphids were killed; 0% means that no aphids were killed.
# [3] = system: green peach aphid (Myzus persicae); experiment: Myzus persicae test (MYZUPE), activity increase due to ammonium salts (Example A); details: sprayed paprika plants; for Kill rate/% after 6 days, a.i.: no additive
# Method: as §1
# as §2, with “ammonium” for “ammonium salts, penetration enhancers or ammonium”, “salts” for “salts and penetration enhancers”
# Paprika plants (Capsicum annuum) which are severely infested by the green peach aphid (Myzus persicae) are treated by spraying with the active substance preparation in the desired concentration.
# as §3
# [4] = system: cotton aphid (Aphis gossypii); experiment: Aphis gossypii test (APHIGO), activity increase due to ammonium salts (Example B); details: sprayed cotton leaves; for Kill rate/% after 6 days, a.i.: no additive
# Method: as §4
# as §2, with “ammonium” for “ammonium salts, penetration enhancers or ammonium”, “salts” for “salts and penetration enhancers”
# as §5, §6
# [5] = system: common spider mite (Tetranychus urticae); experiment: Tetranychus test (OP-resistant), ammonium salts in combination with penetration enhancers (Example F); details: for Kill rate/% after 6 days, a.i.: no additive
# Method: (§7) Tetranychus-Test (OP-Resistant)
# as §2
# (§8) Bean plants (Phaseolus vulgaris) which are severely infested by all stages of the common spider mite (Tetranychus urticae) are treated by spraying with the active substance preparation in the desired concentration.
# (§9) After the desired time, the kill rate in % is determined. here 100% means that all the spider mites were killed; 0% means that no spider mites were killed.
# [6] = system: common spider mite (Tetranychus urticae); experiment: Tetranychus test (OP-resistant), activity increase due to ammonium salts (Example E); details: sprayed bean plants; for Kill rate/% after 6 days, +AS (1000 ppm): active substance 20 ppm + ammonium sulfate 1000 ppm; for Kill rate/% after 6 days, a.i.: active substance 20 ppm, no additive
# Method: as §7
# as §2, with “ammonium” for “ammonium salts, penetration enhancers or ammonium”, “salts” for “salts and penetration enhancers”
# as §8, §9
# [7] = active substance 20 ppm + ammonium sulfate 1000 ppm
# [8] = active substance 4 ppm + ammonium sulfate 1000 ppm
# [9] = active substance 20 ppm + rape oil methyl ester 1000 ppm
# [10] = active substance 20 ppm + rape oil methyl ester and ammonium sulfate
# [11] = active substance 0.8 ppm + ammonium sulfate 1000 ppm
# [12] = active substance 0.8 ppm + rape oil methyl ester 1000 ppm
# [13] = active substance 0.8 ppm + rape oil methyl ester and ammonium sulfate
# [14] = active substance 4 ppm + rape oil methyl ester 1000 ppm
# [15] = active substance 4 ppm + rape oil methyl ester and ammonium sulfate
compound,measurement,setting,value
COc1cccc(S(=O)(=O)NCc2ccccc2)c1C#N [Example 40],"Kill rate/% after 7 days, +AS (1000 ppm)",[1],0%
same,"Kill rate/% after 7 days, +RME (1000 ppm)",[1],40%
same,"Kill rate/% after 7 days, +RME + AS (each 1000 ppm)",[1],50%
same,"Kill rate/% after 7 days, a.i.",[1],0%
COc1cccc(S(=O)(=O)NC(C)C)c1C#N [Example 41],"Kill rate/% after 7 days, +AS (1000 ppm)",[2],80%
same,"Kill rate/% after 7 days, +RME (1000 ppm)",[2],10%
same,"Kill rate/% after 7 days, +RME + AS (each 1000 ppm)",[2],93%
same,"Kill rate/% after 7 days, a.i.",[2],50%
C#CCN1C(=N)c2c(OC)cccc2S1(=O)=O [Example 42-A],"Kill rate/% after 6 days, +AS (1000 ppm)",[3]; [7],45%
same,"Kill rate/% after 6 days, a.i.",[3]; active substance 20 ppm,0%
same,"Kill rate/% after 6 days, +AS (1000 ppm)",[4]; [8],55%
same,"Kill rate/% after 6 days, a.i.",[4]; active substance 4 ppm,15%
same,"Kill rate/% after 6 days, +AS (1000 ppm)",[4]; [7],98%
same,"Kill rate/% after 6 days, a.i.",[4]; active substance 20 ppm,30%
same,"Kill rate/% after 6 days, +AS (1000 ppm)",[1]; [7],45%
same,"Kill rate/% after 6 days, +RME (1000 ppm)",[1]; [9],90%
same,"Kill rate/% after 6 days, +RME + AS (each 1000 ppm)",[1]; [10],98%
same,"Kill rate/% after 6 days, a.i.",[1]; active substance 20 ppm,0%
same,"Kill rate/% after 6 days, +AS (1000 ppm)",[5]; [11],30%
same,"Kill rate/% after 6 days, +RME (1000 ppm)",[5]; [12],45%
same,"Kill rate/% after 6 days, +RME + AS (each 1000 ppm)",[5]; [13],80%
same,"Kill rate/% after 6 days, a.i.",[5]; active substance 0.8 ppm,50%
same,"Kill rate/% after 6 days, +AS (1000 ppm)",[5]; [8],50%
same,"Kill rate/% after 6 days, +RME (1000 ppm)",[5]; [14],75%
same,"Kill rate/% after 6 days, +RME + AS (each 1000 ppm)",[5]; [15],95%
same,"Kill rate/% after 6 days, a.i.",[5]; active substance 4 ppm,70%
C#CCNS(=O)(=O)c1cccc(OC)c1C#N [Example 42],"Kill rate/% after 6 days, +AS (1000 ppm)",[3]; [7],20%
same,"Kill rate/% after 6 days, a.i.",[3]; active substance 20 ppm,5%
same,"Kill rate/% after 6 days, +AS (1000 ppm)",[1]; [7],20%
same,"Kill rate/% after 6 days, +RME (1000 ppm)",[1]; [9],25%
same,"Kill rate/% after 6 days, +RME + AS (each 1000 ppm)",[1]; [10],70%
same,"Kill rate/% after 6 days, a.i.",[1]; active substance 20 ppm,5%
same,"Kill rate/% after 6 days, +AS (1000 ppm)",[1]; active substance 100 ppm + ammonium sulfate 1000 ppm,80%
same,"Kill rate/% after 6 days, +RME (1000 ppm)",[1]; active substance 100 ppm + rape oil methyl ester 1000 ppm,99%
same,"Kill rate/% after 6 days, +RME + AS (each 1000 ppm)",[1]; active substance 100 ppm + rape oil methyl ester and ammonium sulfate,100%
same,"Kill rate/% after 6 days, a.i.",[1]; active substance 100 ppm,75%
C=CCNS(=O)(=O)c1cccc(OC)c1C#N [Example 44],"Kill rate/% after 6 days, +AS (1000 ppm)",[4]; [8],25%
same,"Kill rate/% after 6 days, a.i.",[4]; active substance 4 ppm,5%
same,"Kill rate/% after 6 days, +AS (1000 ppm)",[1]; [8],15%
same,"Kill rate/% after 6 days, +RME (1000 ppm)",[1]; [14],20%
same,"Kill rate/% after 6 days, +RME + AS (each 1000 ppm)",[1]; [15],30%
same,"Kill rate/% after 6 days, a.i.",[1]; active substance 4 ppm,10%
same,"Kill rate/% after 6 days, +AS (1000 ppm)",[1]; [7],70%
same,"Kill rate/% after 6 days, +RME (1000 ppm)",[1]; [9],85%
same,"Kill rate/% after 6 days, +RME + AS (each 1000 ppm)",[1]; [10],98%
same,"Kill rate/% after 6 days, a.i.",[1]; active substance 20 ppm,85%
same,"Kill rate/% after 6 days, +AS (1000 ppm)",[2]; [8],25%
same,"Kill rate/% after 6 days, +RME (1000 ppm)",[2]; [14],45%
same,"Kill rate/% after 6 days, +RME + AS (each 1000 ppm)",[2]; [15],55%
same,"Kill rate/% after 6 days, a.i.",[2]; active substance 4 ppm,5%
same,"Kill rate/% after 6 days, +AS (1000 ppm)",[6],70%
same,"Kill rate/% after 6 days, a.i.",[6],40%
COc1cccc2c1C(N)=NS2(=O)=O [Example 45-B],"Kill rate/% after 6 days, +AS (1000 ppm)",[3]; [8],60%
same,"Kill rate/% after 6 days, a.i.",[3]; active substance 4 ppm,35%
COc1cccc(S(=O)(=O)NC2CC2)c1C#N [Example 83],"Kill rate/% after 7 days, +AS (1000 ppm)",[1],0%
same,"Kill rate/% after 7 days, +RME (1000 ppm)",[1],10%
same,"Kill rate/% after 7 days, +RME + AS (each 1000 ppm)",[1],75%
same,"Kill rate/% after 7 days, a.i.",[1],0%
same,"Kill rate/% after 7 days, +AS (1000 ppm)",[2],55%
same,"Kill rate/% after 7 days, +RME (1000 ppm)",[2],30%
same,"Kill rate/% after 7 days, +RME + AS (each 1000 ppm)",[2],85%
same,"Kill rate/% after 7 days, a.i.",[2],10%
COc1cccc(S(=O)(=O)N(C)C)c1C#N [Example 215],"Kill rate/% after 7 days, +AS (1000 ppm)",[1],20%
same,"Kill rate/% after 7 days, +RME (1000 ppm)",[1],40%
same,"Kill rate/% after 7 days, +RME + AS (each 1000 ppm)",[1],75%
same,"Kill rate/% after 7 days, a.i.",[1],0%
C=CCN(C)S(=O)(=O)c1cccc(OC)c1C#N [Example 225],"Kill rate/% after 6 days, +AS (1000 ppm)",[4]; [7],75%
same,"Kill rate/% after 6 days, a.i.",[4]; active substance 20 ppm,35%
same,"Kill rate/% after 6 days, +AS (1000 ppm)",[1]; [8],0%
same,"Kill rate/% after 6 days, +RME (1000 ppm)",[1]; [14],5%
same,"Kill rate/% after 6 days, +RME + AS (each 1000 ppm)",[1]; [15],35%
same,"Kill rate/% after 6 days, a.i.",[1]; active substance 4 ppm,0%
same,"Kill rate/% after 6 days, +AS (1000 ppm)",[6],80%
same,"Kill rate/% after 6 days, a.i.",[6],20%
N#Cc1ccccc1S(N)(=O)=O [Example 226],"Kill rate/% after 6 days, +AS (1000 ppm)",[1]; [7],10%
same,"Kill rate/% after 6 days, +RME (1000 ppm)",[1]; [9],25%
same,"Kill rate/% after 6 days, +RME + AS (each 1000 ppm)",[1]; [10],50%
same,"Kill rate/% after 6 days, a.i.",[1]; active substance 20 ppm,10%
same,"Kill rate/% after 6 days, +AS (1000 ppm)",[2]; [11],0%
same,"Kill rate/% after 6 days, +RME (1000 ppm)",[2]; [12],20%
same,"Kill rate/% after 6 days, +RME + AS (each 1000 ppm)",[2]; [13],35%
same,"Kill rate/% after 6 days, a.i.",[2]; active substance 0.8 ppm,0%
same,"Kill rate/% after 6 days, +AS (1000 ppm)",[2]; [8],20%
same,"Kill rate/% after 6 days, +RME (1000 ppm)",[2]; [14],35%
same,"Kill rate/% after 6 days, +RME + AS (each 1000 ppm)",[2]; [15],55%
same,"Kill rate/% after 6 days, a.i.",[2]; active substance 4 ppm,20%
same,"Kill rate/% after 6 days, +AS (1000 ppm)",[5]; [7],70%
same,"Kill rate/% after 6 days, +RME (1000 ppm)",[5]; [9],60%
same,"Kill rate/% after 6 days, +RME + AS (each 1000 ppm)",[5]; [10],90%
same,"Kill rate/% after 6 days, a.i.",[5]; active substance 20 ppm,50%
